Laboratory results as given in ChEMBL document CHEMBL4251615, “Discovery of anilino-furo[2,3-d]pyrimidine derivatives as dual inhibitors of EGFR/HER2 tyrosine kinase and their anticancer activity” (Eur J Med Chem, 2018).

system: UO-31; experiment: Growth inhibition of human UO31 cells assessed as cell growth at 10 uM incubated for 48 hrs by sulforhodamine B assay relative to control; format: functional; conditions: UO-31, 48 h, read-out: Activity

Point of comparison: Cc1oc2ncnc(Nc3ccccc3)c2c1C(=O)NCCO, growth at 10 µM 87.7%. Against it:
- CCCNC(=O)c1c(C)oc2ncnc(Nc3cccc(Cl)c3)c12 — lower, 72.4%

system: NCI-H460; experiment: Growth inhibition of human NCI-H460 cells assessed as cell growth at 10 uM incubated for 48 hrs by sulforhodamine B assay relative to control; format: functional; conditions: NCI-H460, 48 h, read-out: Activity

Point of comparison: Cc1oc2ncnc(Nc3ccccc3)c2c1C(=O)NCCO, growth at 10 µM 98.6%. Against it:
- CCCNC(=O)c1c(C)oc2ncnc(Nc3cccc(Cl)c3)c12 — higher, 107%

system: HCT-15; experiment: Growth inhibition of human HCT15 cells assessed as cell growth at 10 uM incubated for 48 hrs by sulforhodamine B assay relative to control; format: functional; conditions: HCT-15, 48 h, read-out: Activity

Point of comparison: CCCNC(=O)c1c(C)oc2ncnc(Nc3cccc(Cl)c3)c12, growth at 10 µM 101%. Against it:
- Cc1oc2ncnc(Nc3ccccc3)c2c1C(=O)NCCO — lower, 98%

system: NCI-H226; experiment: Growth inhibition of human NCI-H226 cells assessed as cell growth at 10 uM incubated for 48 hrs by sulforhodamine B assay relative to control; format: functional; conditions: NCI-H226, 48 h, read-out: Activity

Point of comparison: CCCNC(=O)c1c(C)oc2ncnc(Nc3cccc(Cl)c3)c12, growth at 10 µM 90%. Against it:
- Cc1oc2ncnc(Nc3ccccc3)c2c1C(=O)NCCO — higher, 106%

system: CCRF-CEM; experiment: Growth inhibition of human CCRF-CEM cells assessed as cell growth at 10 uM incubated for 48 hrs by sulforhodamine B assay relative to control; format: functional; conditions: read-out: Activity

Point of comparison: Cc1oc2ncnc(Nc3ccccc3)c2c1C(=O)NCCO, growth at 10 µM 97.4%. Against it:
- CCCNC(=O)c1c(C)oc2ncnc(Nc3cccc(Cl)c3)c12 — lower, 93.9%

system: CAKI-1; experiment: Growth inhibition of human Caki1 cells assessed as cell growth at 10 uM incubated for 48 hrs by sulforhodamine B assay relative to control; format: functional; conditions: CAKI-1, 48 h, read-out: Activity

Point of comparison: CCCNC(=O)c1c(C)oc2ncnc(Nc3cccc(Cl)c3)c12, growth at 10 µM 101%. Against it:
- Cc1oc2ncnc(Nc3ccccc3)c2c1C(=O)NCCO — lower, 90.8%

system: DU-145; experiment: Growth inhibition of human DU145 cells assessed as cell growth at 10 uM incubated for 48 hrs by sulforhodamine B assay relative to control; format: functional; conditions: DU-145, 48 h, read-out: Activity

Point of comparison: Cc1oc2ncnc(Nc3ccccc3)c2c1C(=O)NCCO, growth at 10 µM 105%. Against it:
- CCCNC(=O)c1c(C)oc2ncnc(Nc3cccc(Cl)c3)c12 — lower, 90%

system: NCI/ADR-RES; experiment: Growth inhibition of human NCI/ADR-RES cells assessed as cell growth at 10 uM incubated for 48 hrs by sulforhodamine B assay relative to control; format: functional; conditions: read-out: Activity

Point of comparison: CCCNC(=O)c1c(C)oc2ncnc(Nc3cccc(Cl)c3)c12, growth at 10 µM 94.1%. Against it:
- Cc1oc2ncnc(Nc3ccccc3)c2c1C(=O)NCCO — higher, 102%

system: SK-MEL-5; experiment: Growth inhibition of human SK-MEL-5 cells assessed as cell growth at 10 uM incubated for 48 hrs by sulforhodamine B assay relative to control; format: functional; conditions: SK-MEL-5, 48 h, read-out: Activity

Point of comparison: Cc1oc2ncnc(Nc3ccccc3)c2c1C(=O)NCCO, growth at 10 µM 97.5%. Against it:
- CCCNC(=O)c1c(C)oc2ncnc(Nc3cccc(Cl)c3)c12 — lower, 89.9%

system: SNB-75; experiment: Growth inhibition of human SNB75 cells assessed as cell growth at 10 uM incubated for 48 hrs by sulforhodamine B assay relative to control; format: functional; conditions: SNB-75, 48 h, read-out: Activity

Point of comparison: Cc1oc2ncnc(Nc3ccccc3)c2c1C(=O)NCCO, growth at 10 µM 90.7%. Against it:
- CCCNC(=O)c1c(C)oc2ncnc(Nc3cccc(Cl)c3)c12 — higher, 94.6%

system: COLO 205; experiment: Growth inhibition of human COLO205 cells assessed as cell growth at 10 uM incubated for 48 hrs by sulforhodamine B assay relative to control; format: functional; conditions: COLO 205, 48 h, read-out: Activity

Point of comparison: Cc1oc2ncnc(Nc3ccccc3)c2c1C(=O)NCCO, growth at 10 µM 100%. Against it:
- CCCNC(=O)c1c(C)oc2ncnc(Nc3cccc(Cl)c3)c12 — higher, 104%

system: A498; experiment: Growth inhibition of human A498 cells assessed as cell growth at 10 uM incubated for 48 hrs by sulforhodamine B assay relative to control; format: functional; conditions: A498, 48 h, read-out: Activity

Point of comparison: CCCNC(=O)c1c(C)oc2ncnc(Nc3cccc(Cl)c3)c12, growth at 10 µM 74.3%. Against it:
- Cc1oc2ncnc(Nc3ccccc3)c2c1C(=O)NCCO — higher, 78.2%

system: UACC-62; experiment: Growth inhibition of human UACC62 cells assessed as cell growth at 10 uM incubated for 48 hrs by sulforhodamine B assay relative to control; format: functional; conditions: UACC-62, 48 h, read-out: Activity

Point of comparison: CCCNC(=O)c1c(C)oc2ncnc(Nc3cccc(Cl)c3)c12, growth at 10 µM 83.4%. Against it:
- Cc1oc2ncnc(Nc3ccccc3)c2c1C(=O)NCCO — higher, 86.2%

system: SF-539; experiment: Growth inhibition of human SF539 cells assessed as cell growth at 10 uM incubated for 48 hrs by sulforhodamine B assay relative to control; format: functional; conditions: SF-539, 48 h, read-out: Activity

Point of comparison: CCCNC(=O)c1c(C)oc2ncnc(Nc3cccc(Cl)c3)c12, growth at 10 µM 99.1%. Against it:
- Cc1oc2ncnc(Nc3ccccc3)c2c1C(=O)NCCO — lower, 88.6%

system: KM12; experiment: Growth inhibition of human KM12 cells assessed as cell growth at 10 uM incubated for 48 hrs by sulforhodamine B assay relative to control; format: functional; conditions: KM12, 48 h, read-out: Activity

Point of comparison: Cc1oc2ncnc(Nc3ccccc3)c2c1C(=O)NCCO, growth at 10 µM 95.2%. Against it:
- CCCNC(=O)c1c(C)oc2ncnc(Nc3cccc(Cl)c3)c12 — lower, 94.6%

system: OVCAR-8; experiment: Growth inhibition of human OVCAR8 cells assessed as cell growth at 10 uM incubated for 48 hrs by sulforhodamine B assay relative to control; format: functional; conditions: OVCAR-8, 48 h, read-out: Activity

Point of comparison: Cc1oc2ncnc(Nc3ccccc3)c2c1C(=O)NCCO, growth at 10 µM 113%. Against it:
- CCCNC(=O)c1c(C)oc2ncnc(Nc3cccc(Cl)c3)c12 — lower, 96.8%

system: OVCAR-5; experiment: Growth inhibition of human OVCAR5 cells assessed as cell growth at 10 uM incubated for 48 hrs by sulforhodamine B assay relative to control; format: functional; conditions: OVCAR-5, 48 h, read-out: Activity

Point of comparison: CCCNC(=O)c1c(C)oc2ncnc(Nc3cccc(Cl)c3)c12, growth at 10 µM 112%. Against it:
- Cc1oc2ncnc(Nc3ccccc3)c2c1C(=O)NCCO — lower, 93.2%

system: SK-MEL-28; experiment: Growth inhibition of human SK-MEL-28 cells assessed as cell growth at 10 uM incubated for 48 hrs by sulforhodamine B assay relative to control; format: functional; conditions: SK-MEL-28, 48 h, read-out: Activity

Point of comparison: CCCNC(=O)c1c(C)oc2ncnc(Nc3cccc(Cl)c3)c12, growth at 10 µM 112%. Against it:
- Cc1oc2ncnc(Nc3ccccc3)c2c1C(=O)NCCO — lower, 99%

system: K562; experiment: Growth inhibition of human K562 cells assessed as cell growth at 10 uM incubated for 48 hrs by sulforhodamine B assay relative to control; format: functional; conditions: K562, 48 h, read-out: Activity

Point of comparison: CCCNC(=O)c1c(C)oc2ncnc(Nc3cccc(Cl)c3)c12, growth at 10 µM 90.1%. Against it:
- Cc1oc2ncnc(Nc3ccccc3)c2c1C(=O)NCCO — lower, 29.4%

system: SR; experiment: Growth inhibition of human SR cells assessed as cell growth at 10 uM incubated for 48 hrs by sulforhodamine B assay relative to control; format: functional; conditions: read-out: Activity

Point of comparison: CCCNC(=O)c1c(C)oc2ncnc(Nc3cccc(Cl)c3)c12, growth at 10 µM 86%. Against it:
- Cc1oc2ncnc(Nc3ccccc3)c2c1C(=O)NCCO — lower, 52.2%

system: HOP-62; experiment: Growth inhibition of human HOP62 cells assessed as cell growth at 10 uM incubated for 48 hrs by sulforhodamine B assay relative to control; format: functional; conditions: HOP-62, 48 h, read-out: Activity

Point of comparison: CCCNC(=O)c1c(C)oc2ncnc(Nc3cccc(Cl)c3)c12, growth at 10 µM 87.7%. Against it:
- Cc1oc2ncnc(Nc3ccccc3)c2c1C(=O)NCCO — higher, 99%

system: T47D; experiment: Growth inhibition of human T47D cells assessed as cell growth at 10 uM incubated for 48 hrs by sulforhodamine B assay relative to control; format: functional; conditions: read-out: Activity

Point of comparison: Cc1oc2ncnc(Nc3ccccc3)c2c1C(=O)NCCO, growth at 10 µM 99.4%. Against it:
- CCCNC(=O)c1c(C)oc2ncnc(Nc3cccc(Cl)c3)c12 — lower, 53.5%

system: LOX IMVI; experiment: Growth inhibition of human LOXIMVI cells assessed as cell growth at 10 uM incubated for 48 hrs by sulforhodamine B assay relative to control; format: functional; conditions: read-out: Activity

Point of comparison: Cc1oc2ncnc(Nc3ccccc3)c2c1C(=O)NCCO, growth at 10 µM 95.4%. Against it:
- CCCNC(=O)c1c(C)oc2ncnc(Nc3cccc(Cl)c3)c12 — higher, 96.4%

system: SK-OV-3; experiment: Growth inhibition of human SKOV3 cells assessed as cell growth at 10 uM incubated for 48 hrs by sulforhodamine B assay relative to control; format: functional; conditions: SK-OV-3, 48 h, read-out: Activity

Point of comparison: Cc1oc2ncnc(Nc3ccccc3)c2c1C(=O)NCCO, growth at 10 µM 100%. Against it:
- CCCNC(=O)c1c(C)oc2ncnc(Nc3cccc(Cl)c3)c12 — lower, 85.6%

target: Epidermal growth factor receptor (Homo sapiens, UniProt P00533); experiment: Inhibition of recombinant human C-terminal His/N-terminal GST-tagged EGFR (668 to 1210 residues) expressed in baculovirus infected Sf9 cells at 10 uM using biotin-labeled poly[Glu:Tyr] (4:1) as substrate after 30 mins by Kinase-Glo plus luminescence assay relative to control; conditions: not given
Sequence (P00533 whole entry, the tested form may be a part): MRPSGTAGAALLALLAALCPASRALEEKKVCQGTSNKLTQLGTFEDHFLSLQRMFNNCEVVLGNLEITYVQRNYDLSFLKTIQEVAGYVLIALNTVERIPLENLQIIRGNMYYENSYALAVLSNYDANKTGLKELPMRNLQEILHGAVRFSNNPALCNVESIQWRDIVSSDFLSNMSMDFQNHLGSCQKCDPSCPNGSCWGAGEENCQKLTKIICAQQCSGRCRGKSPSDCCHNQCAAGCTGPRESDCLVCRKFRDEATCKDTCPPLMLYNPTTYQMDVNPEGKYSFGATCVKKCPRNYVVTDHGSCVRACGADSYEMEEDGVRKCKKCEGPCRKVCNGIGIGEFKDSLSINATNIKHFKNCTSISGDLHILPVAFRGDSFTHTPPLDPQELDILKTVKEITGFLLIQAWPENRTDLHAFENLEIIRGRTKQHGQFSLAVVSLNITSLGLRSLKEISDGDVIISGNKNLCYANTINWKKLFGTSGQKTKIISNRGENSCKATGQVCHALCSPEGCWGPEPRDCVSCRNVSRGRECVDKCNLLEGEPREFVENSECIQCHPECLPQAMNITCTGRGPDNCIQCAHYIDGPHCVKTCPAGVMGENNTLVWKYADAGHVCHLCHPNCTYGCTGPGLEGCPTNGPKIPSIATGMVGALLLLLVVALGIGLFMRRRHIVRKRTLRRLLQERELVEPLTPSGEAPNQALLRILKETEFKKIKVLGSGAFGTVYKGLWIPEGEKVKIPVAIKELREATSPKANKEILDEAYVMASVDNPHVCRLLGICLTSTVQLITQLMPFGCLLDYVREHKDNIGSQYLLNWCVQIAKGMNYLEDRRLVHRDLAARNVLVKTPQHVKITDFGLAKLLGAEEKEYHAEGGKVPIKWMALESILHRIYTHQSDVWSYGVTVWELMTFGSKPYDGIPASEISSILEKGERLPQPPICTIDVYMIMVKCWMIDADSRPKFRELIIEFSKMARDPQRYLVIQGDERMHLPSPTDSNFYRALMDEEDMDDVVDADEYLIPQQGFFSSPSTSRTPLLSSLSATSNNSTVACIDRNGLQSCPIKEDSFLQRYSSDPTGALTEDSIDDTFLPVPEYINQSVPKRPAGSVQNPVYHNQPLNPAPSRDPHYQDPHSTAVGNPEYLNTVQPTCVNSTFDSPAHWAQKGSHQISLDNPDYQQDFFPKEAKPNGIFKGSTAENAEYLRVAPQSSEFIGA

Point of comparison: CCCNC(=O)c1c(C)oc2ncnc(Nc3cccc(Cl)c3)c12, inhibition 65%. Against it:
- Cc1oc2ncnc(Nc3ccccc3)c2c1C(=O)NCCO — lower, 8%

system: M14; experiment: Growth inhibition of human M14 cells assessed as cell growth at 10 uM incubated for 48 hrs by sulforhodamine B assay relative to control; format: functional; conditions: M14, 48 h, read-out: Activity

Point of comparison: CCCNC(=O)c1c(C)oc2ncnc(Nc3cccc(Cl)c3)c12, growth at 10 µM 115%. Against it:
- Cc1oc2ncnc(Nc3ccccc3)c2c1C(=O)NCCO — lower, 106%
